Measurements reported in publication PMC9090415, “Discovery of small molecule inhibitors of Plasmodium falciparum apicoplast DNA polymerase” (Journal of Enzyme Inhibition and Medicinal Chemistry, 2022).

Molecular target: P. falciparum apicoplast DNA polymerase (Pf-apPOL) (Plasmodium falciparum, UniProt Q8ILY1)
Assay: Fluorescence-based high-throughput DNA polymerase assay (molecular beacon), primary screen and dose-response;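 as to % inhibition ApPOL 90': test concentration in µM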;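 as to % inhibition Apol 40': compound concentration given in µM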;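 as to % inhibition apPOL 180': test concentration in µM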
Assay type: biochemical
Settings: for DNA Pol: 90 min, 10 µM
How it was run: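 Single-point screening used 10 µM compound with 20 nM polymerase, 20 nM hairpin substrate and 6 µM dNTPs for 90 min at 25 °C. Confirmatory titrations (2.5–80 µM) followed fluorescence at three times, and IC50 was derived from a fit including a cooperativity term n.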

[1] = 'DNA Pol' of the 186 hits list (primary screen value)
[2] = "DNA Pol" of the 186 hits list (screen value)

P. falciparum apicoplast DNA polymerase (Pf-apPOL), sequence (Q8ILY1 entry or part of it): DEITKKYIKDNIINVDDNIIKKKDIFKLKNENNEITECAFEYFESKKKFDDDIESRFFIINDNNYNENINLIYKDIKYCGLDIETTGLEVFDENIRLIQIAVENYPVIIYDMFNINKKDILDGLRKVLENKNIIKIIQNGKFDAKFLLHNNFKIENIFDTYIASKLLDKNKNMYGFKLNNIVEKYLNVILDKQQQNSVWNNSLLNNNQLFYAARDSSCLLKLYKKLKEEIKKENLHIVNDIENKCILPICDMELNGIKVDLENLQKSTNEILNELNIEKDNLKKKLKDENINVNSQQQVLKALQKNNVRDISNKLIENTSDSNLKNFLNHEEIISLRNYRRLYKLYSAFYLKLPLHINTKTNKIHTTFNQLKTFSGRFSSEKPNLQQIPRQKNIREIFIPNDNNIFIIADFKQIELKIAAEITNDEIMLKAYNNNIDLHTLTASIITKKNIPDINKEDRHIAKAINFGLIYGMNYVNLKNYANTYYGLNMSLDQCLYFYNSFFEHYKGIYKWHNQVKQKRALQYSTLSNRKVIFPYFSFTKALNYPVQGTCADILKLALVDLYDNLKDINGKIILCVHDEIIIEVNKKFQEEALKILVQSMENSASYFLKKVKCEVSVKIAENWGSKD

O=c1[nH]c2ccc([N+](=O)[O-])cc2c(-c2ccccc2)c1Sc1nc2ccccc2o1 [KU0067471]
DNA Pol [1]: 28
DNA Pol (DNA Pol (primary screen value)): 28
% inhibition Apo pol 10' (DRC-1, concentration 2.5): 11.1433%
% inhibition Apo pol 10' (DRC-1, concentration 5): 11.3784%
% inhibition Apo pol 10' (DRC-1, concentration 10): 23.2925%
% inhibition Apo pol 10' (DRC-1, concentration 20): 44.3997%
% inhibition Apo pol 10' (DRC-1, concentration 40): 71.988%
% inhibition Apo pol 10' (DRC-1, concentration 80): 85.2168%
% inhibition Apol 90' (DRC-1, concentration 2.5): 8.412%
% inhibition Apol 90' (DRC-1, concentration 5): 5.979%
% inhibition Apol 90' (DRC-1, concentration 10): 13.3902%
% inhibition Apol 90' (DRC-1, concentration 20): 30.6503%
% inhibition Apol 90' (DRC-1, concentration 40): 58.6016%
% inhibition Apol 90' (DRC-1, concentration 80): 77.507%
% inhibition apPOL 180' (DRC-1, concentration 2.5): 7.341%
% inhibition apPOL 180' (DRC-1, concentration 5): 3.743%
% inhibition apPOL 180' (DRC-1, concentration 10): 8.363%
% inhibition apPOL 180' (DRC-1, concentration 20): 19.4729%
% inhibition apPOL 180' (DRC-1, concentration 40): 44.0566%
% inhibition apPOL 180' (DRC-1, concentration 80): 66.9195%
% inhibition Apo pol 5' (DRC-2, concentration 2.5): 9%
% inhibition Apo pol 5' (DRC-2, concentration 5): 12%
% inhibition Apo pol 5' (DRC-2, concentration 10): 26%
% inhibition Apo pol 5' (DRC-2, concentration 20): 42%
% inhibition Apo pol 5' (DRC-2, concentration 40): 59%
% inhibition Apo pol 5' (DRC-2, concentration 80): 60%
% inhibition Apol 40' (DRC-2, concentration 2.5): 7%
% inhibition Apol 40' (DRC-2, concentration 5): 9%
% inhibition Apol 40' (DRC-2, concentration 10): 24%
% inhibition Apol 40' (DRC-2, concentration 20): 43%
% inhibition Apol 40' (DRC-2, concentration 40): 65%
% inhibition Apol 40' (DRC-2, concentration 80): 72%
% inhibition ApPOL 90' (DRC-2, concentration 2.5): 5%
% inhibition ApPOL 90' (DRC-2, concentration 5): 7%
% inhibition ApPOL 90' (DRC-2, concentration 10): 20%
% inhibition ApPOL 90' (DRC-2, concentration 20): 40%
% inhibition ApPOL 90' (DRC-2, concentration 40): 65%
% inhibition ApPOL 90' (DRC-2, concentration 80): 73%
% inhibition apPOL 180' (DRC-2, concentration 2.5): -0.297%
% inhibition apPOL 180' (DRC-2, concentration 5): -0.499%
% inhibition apPOL 180' (DRC-2, concentration 10): 10%
% inhibition apPOL 180' (DRC-2, concentration 20): 26%
% inhibition apPOL 180' (DRC-2, concentration 40): 57%
% inhibition apPOL 180' (DRC-2, concentration 80): 72%

O=C1CCCC2=C1C(c1ccccn1)C1=C(CCCC1=O)O2 [KU0194228]
DNA Pol [1]: 11
DNA Pol (DNA Pol (primary screen value)): 11
% inhibition Apo pol 10' (DRC-1, concentration 2.5): 1.279%
% inhibition Apo pol 10' (DRC-1, concentration 5): 9.9789%
% inhibition Apo pol 10' (DRC-1, concentration 10): 33.5344%
% inhibition Apo pol 10' (DRC-1, concentration 20): 43.7332%
% inhibition Apo pol 10' (DRC-1, concentration 40): 62.1087%
% inhibition Apo pol 10' (DRC-1, concentration 80): 77.9707%
% inhibition Apol 90' (DRC-1, concentration 2.5): 2.669%
% inhibition Apol 90' (DRC-1, concentration 5): 9.934%
% inhibition Apol 90' (DRC-1, concentration 10): 28.061%
% inhibition Apol 90' (DRC-1, concentration 20): 43.923%
% inhibition Apol 90' (DRC-1, concentration 40): 56.4118%
% inhibition Apol 90' (DRC-1, concentration 80): 74.3626%
% inhibition apPOL 180' (DRC-1, concentration 2.5): 5.61%
% inhibition apPOL 180' (DRC-1, concentration 5): 16.0813%
% inhibition apPOL 180' (DRC-1, concentration 10): 29.7893%
% inhibition apPOL 180' (DRC-1, concentration 20): 44.3828%
% inhibition apPOL 180' (DRC-1, concentration 40): 53.3605%
% inhibition apPOL 180' (DRC-1, concentration 80): 68.1872%
% inhibition Apo pol 5' (DRC-2, concentration 2.5): 5%
% inhibition Apo pol 5' (DRC-2, concentration 5): 4%
% inhibition Apo pol 5' (DRC-2, concentration 10): 22%
% inhibition Apo pol 5' (DRC-2, concentration 20): 33%
% inhibition Apo pol 5' (DRC-2, concentration 40): 44%
% inhibition Apo pol 5' (DRC-2, concentration 80): 43%
% inhibition Apol 40' (DRC-2, concentration 2.5): 2.6%
% inhibition Apol 40' (DRC-2, concentration 5): -9%
% inhibition Apol 40' (DRC-2, concentration 10): 15%
% inhibition Apol 40' (DRC-2, concentration 20): 33%
% inhibition Apol 40' (DRC-2, concentration 40): 46%
% inhibition Apol 40' (DRC-2, concentration 80): 52%
% inhibition ApPOL 90' (DRC-2, concentration 2.5): 2%
% inhibition ApPOL 90' (DRC-2, concentration 5): -14%
% inhibition ApPOL 90' (DRC-2, concentration 10): 18%
% inhibition ApPOL 90' (DRC-2, concentration 20): 37%
% inhibition ApPOL 90' (DRC-2, concentration 40): 49%
% inhibition ApPOL 90' (DRC-2, concentration 80): 58%
% inhibition apPOL 180' (DRC-2, concentration 2.5): -0.328%
% inhibition apPOL 180' (DRC-2, concentration 5): -74%
% inhibition apPOL 180' (DRC-2, concentration 10): 22%
% inhibition apPOL 180' (DRC-2, concentration 20): 41%
% inhibition apPOL 180' (DRC-2, concentration 40): 48%
% inhibition apPOL 180' (DRC-2, concentration 80): 60%

O=[N+]([O-])c1ccc(/C=C/c2ccc3ccccc3n2)o1 [Molecule 21, O=N(=O)c1ccc(o1)/C=C/c1ccc2c(n1)cccc2]
DNA Pol [2]: 59
% inhibition Apo pol 10' (DRC-1, concentration 2.5): 21.0135%
% inhibition Apo pol 10' (DRC-1, concentration 5): 49.9982%
% inhibition Apo pol 10' (DRC-1, concentration 10): 70.3482%
% inhibition Apo pol 10' (DRC-1, concentration 20): 76.4404%
% inhibition Apo pol 10' (DRC-1, concentration 40): 64.8126%
% inhibition Apo pol 10' (DRC-1, concentration 80): 40.0961%
% inhibition Apol 90' (DRC-1, concentration 2.5): 13.3257%
% inhibition Apol 90' (DRC-1, concentration 5): 34.694%
% inhibition Apol 90' (DRC-1, concentration 10): 59.8691%
% inhibition Apol 90' (DRC-1, concentration 20): 78.6772%
% inhibition Apol 90' (DRC-1, concentration 40): 78.7593%
% inhibition Apol 90' (DRC-1, concentration 80): 64.7186%
% inhibition apPOL 180' (DRC-1, concentration 2.5): 4.404%
% inhibition apPOL 180' (DRC-1, concentration 5): 20.9702%
% inhibition apPOL 180' (DRC-1, concentration 10): 46.0127%
% inhibition apPOL 180' (DRC-1, concentration 20): 74.6169%
% inhibition apPOL 180' (DRC-1, concentration 40): 82.0338%
% inhibition apPOL 180' (DRC-1, concentration 80): 72.6505%
% inhibition Apo pol 5' (DRC-2, concentration 2.5): 37%
% inhibition Apo pol 5' (DRC-2, concentration 5): 38%
% inhibition Apo pol 5' (DRC-2, concentration 10): 41%
% inhibition Apo pol 5' (DRC-2, concentration 20): 27%
% inhibition Apo pol 5' (DRC-2, concentration 40): 16%
% inhibition Apo pol 5' (DRC-2, concentration 80): -66%
% inhibition Apol 40' (DRC-2, concentration 2.5): 44%
% inhibition Apol 40' (DRC-2, concentration 5): 51%
% inhibition Apol 40' (DRC-2, concentration 10): 63%
% inhibition Apol 40' (DRC-2, concentration 20): 61%
% inhibition Apol 40' (DRC-2, concentration 40): 54%
% inhibition Apol 40' (DRC-2, concentration 80): 10%
% inhibition ApPOL 90' (DRC-2, concentration 2.5): 41%
% inhibition ApPOL 90' (DRC-2, concentration 5): 50%
% inhibition ApPOL 90' (DRC-2, concentration 10): 65%
% inhibition ApPOL 90' (DRC-2, concentration 20): 67%
% inhibition ApPOL 90' (DRC-2, concentration 40): 62%
% inhibition ApPOL 90' (DRC-2, concentration 80): 30%
% inhibition apPOL 180' (DRC-2, concentration 2.5): 29%
% inhibition apPOL 180' (DRC-2, concentration 5): 39%
% inhibition apPOL 180' (DRC-2, concentration 10): 61%
% inhibition apPOL 180' (DRC-2, concentration 20): 71%
% inhibition apPOL 180' (DRC-2, concentration 40): 69%
% inhibition apPOL 180' (DRC-2, concentration 80): 50%
DNA Pol (primary screen value, DNA Pol): 59

Cc1ccc(C(=O)/C=C/C=C/C=C/N(C)C)o1 [Molecule 96, CN(/C=C/C=C/C=C/C(=O)c1ccc(o1)C)C]
DNA Pol [2]: 48
% inhibition Apo pol 10' (DRC-1, concentration 2.5): 21.8998%
% inhibition Apo pol 10' (DRC-1, concentration 5): 52.2247%
% inhibition Apo pol 10' (DRC-1, concentration 10): 71.8634%
% inhibition Apo pol 10' (DRC-1, concentration 20): 65.9561%
% inhibition Apo pol 10' (DRC-1, concentration 40): 68.0612%
% inhibition Apo pol 10' (DRC-1, concentration 80): 57.2941%
% inhibition Apol 90' (DRC-1, concentration 2.5): 11.0382%
% inhibition Apol 90' (DRC-1, concentration 5): 37.6511%
% inhibition Apol 90' (DRC-1, concentration 10): 62.1527%
% inhibition Apol 90' (DRC-1, concentration 20): 58.9151%
% inhibition Apol 90' (DRC-1, concentration 40): 72.0375%
% inhibition Apol 90' (DRC-1, concentration 80): 69.2174%
% inhibition apPOL 180' (DRC-1, concentration 2.5): 1.481%
% inhibition apPOL 180' (DRC-1, concentration 5): 22.6897%
% inhibition apPOL 180' (DRC-1, concentration 10): 46.7432%
% inhibition apPOL 180' (DRC-1, concentration 20): 45.7545%
% inhibition apPOL 180' (DRC-1, concentration 40): 68.8362%
% inhibition apPOL 180' (DRC-1, concentration 80): 73.043%
% inhibition Apo pol 5' (DRC-2, concentration 2.5): 1.29%
% inhibition Apo pol 5' (DRC-2, concentration 5): 13%
% inhibition Apo pol 5' (DRC-2, concentration 10): 21%
% inhibition Apo pol 5' (DRC-2, concentration 20): 2.29%
% inhibition Apo pol 5' (DRC-2, concentration 40): -21%
% inhibition Apo pol 5' (DRC-2, concentration 80): -45%
% inhibition Apol 40' (DRC-2, concentration 2.5): 3.43%
% inhibition Apol 40' (DRC-2, concentration 5): 26%
% inhibition Apol 40' (DRC-2, concentration 10): 44%
% inhibition Apol 40' (DRC-2, concentration 20): 42%
% inhibition Apol 40' (DRC-2, concentration 40): 32%
% inhibition Apol 40' (DRC-2, concentration 80): 20%
% inhibition ApPOL 90' (DRC-2, concentration 2.5): 1%
% inhibition ApPOL 90' (DRC-2, concentration 5): 23%
% inhibition ApPOL 90' (DRC-2, concentration 10): 44%
% inhibition ApPOL 90' (DRC-2, concentration 20): 47%
% inhibition ApPOL 90' (DRC-2, concentration 40): 44%
% inhibition ApPOL 90' (DRC-2, concentration 80): 38%
% inhibition apPOL 180' (DRC-2, concentration 2.5): -4.64%
% inhibition apPOL 180' (DRC-2, concentration 5): 13%
% inhibition apPOL 180' (DRC-2, concentration 10): 36%
% inhibition apPOL 180' (DRC-2, concentration 20): 47%
% inhibition apPOL 180' (DRC-2, concentration 40): 51%
% inhibition apPOL 180' (DRC-2, concentration 80): 53%
DNA Pol (primary screen value, DNA Pol): 48
